Consider 58 sequences from the OligoGym collection.

Values joined by “and” are separate entries in the source; they are usually repeats but may differ in a detail not shown here. Equal values may be shown once. These antisense oligonucleotides have a phosphorothioate backbone; sugars and methylation of C are not fully specified.

Some targets named below: TNF; MAP2K4; BIRC3.
Common to all, as to conditions: ASO
Further: test concentration or dose not given here.

On to GATCATGCTTTCCGTGCTCAT, for which the remaining target (mRNA or protein) (fraction of control) in the series with TNF worked out at 0.94.

The sequence GATCCTCATCTGGTCCAATG came in with a remaining target (mRNA or protein) (fraction of control) with MAP2K4 of 0.6.

In the case of GATTTTGCCTAAAATTTCTT, the remaining target (mRNA or protein) (fraction of control) in the series with MAP2K4 is at least 1.

Regarding GCACTTTTATTTCTTAGA, the remaining target (mRNA or protein) (fraction of control) with BIRC3 is 0.3.

In turn, GCAGCATTAATCACAGGA showed a remaining target (mRNA or protein) (fraction of control) with BIRC3 of at least 1.

As for GCAGCCTTGTCCCTTGAAGAG, the remaining target (mRNA or protein) (fraction of control) in the series with TNF turned out to be 0.73.

GCATGGCTTTGCTTTTAT: the remaining target (mRNA or protein) (fraction of control) in the series with BIRC3 is at least 1.

Sequence GCCTCTTGTAACAGTGCTGA showed a remaining target (mRNA or protein) (fraction of control) with MAP2K4 of 0.47.

In turn, GCCTGAAGACAGCTTCCCAAC gave a remaining target (mRNA or protein) (fraction of control) in the series with TNF of 0.24.

Sequence GCTCGGGCTCGGAGCCGCCA came in with a remaining target (mRNA or protein) (fraction of control) with MAP2K4 of 0.47.

On to GCTCTGCTGTCAAGTGTT, for which, in the series with BIRC3, the remaining target (mRNA or protein) (fraction of control) was determined as 0.43.

For the sequence GCTGAGCAGGTCCCCCTTCTC, in the series with TNF, the remaining target (mRNA or protein) (fraction of control) worked out at 0.8.

Sequence GCTGGAAGACTCCTCCCAGGT gave a remaining target (mRNA or protein) (fraction of control) with TNF of 0.35.

The sequence GCTGTGCAAGCTCTTCTCAC had a remaining target (mRNA or protein) (fraction of control) with MAP2K4 of 0.63.

For GGAGACACAGCAATACGTGC, in the series with MAP2K4, the remaining target (mRNA or protein) (fraction of control) turned out to be 0.61.

In the series with MAP2K4, GGAGCCGCCATTGTTGGGAG gave a remaining target (mRNA or protein) (fraction of control) of 0.91.

GGCACTCACCTCCTCCTTGTT: the remaining target (mRNA or protein) (fraction of control) in the series with TNF was 0.94.

Regarding GGCTCGGAGCCGCCATTGTT, the remaining target (mRNA or protein) (fraction of control) with MAP2K4 stood at 0.56.

GGGAAATTCCCAGGACCAGGG: the remaining target (mRNA or protein) (fraction of control) in the series with TNF is at least 1.

In the series with TNF, GGGATAGCTGGTAGTTTAG came in with a remaining target (mRNA or protein) (fraction of control) of at least 1.

GGGTCTCAGTATGCTGCC returned a remaining target (mRNA or protein) (fraction of control) in the series with BIRC3 of 0.79.

In turn, GGTCAACTTCTCCAGGCT returned a remaining target (mRNA or protein) (fraction of control) in the series with BIRC3 of 0.35.

GGTCTCCCTCCCCAACTCTCC had a remaining target (mRNA or protein) (fraction of control) in the series with TNF of 0.18.

With GGTTCCGTAAGGAAGGCTGG, in the series with TNF, the remaining target (mRNA or protein) (fraction of control) was 0.94.

For GTAAGTAATCTGGCATTT, the remaining target (mRNA or protein) (fraction of control) with BIRC3 is at least 1.

Sequence GTCGCCTCACAGAGCAATGAC showed a remaining target (mRNA or protein) (fraction of control) with TNF of at least 1.

In turn, GTCTGATGTAGCAGCGATAT showed a remaining target (mRNA or protein) (fraction of control) with MAP2K4 of 0.53.

For GTGAAATCCCAGTGTTGTTC, the remaining target (mRNA or protein) (fraction of control) in the series with MAP2K4 worked out at 0.91.

Sequence GTTCATCACAAAAGAGCAGG displayed a remaining target (mRNA or protein) (fraction of control) with MAP2K4 of 0.89.

In the series with TNF, GTTTCCCCTCCATCTCCCTCC had a remaining target (mRNA or protein) (fraction of control) of 0.26.

As to TAAAACCCTTCACAGAAG, the remaining target (mRNA or protein) (fraction of control) with BIRC3 is at least 1.

TACAATTTCAATAATGCT registered a remaining target (mRNA or protein) (fraction of control) in the series with BIRC3 of 0.62.

Regarding TAGAAATGAATTTAAGATGT, in the series with MAP2K4, the remaining target (mRNA or protein) (fraction of control) is at least 1.

As to TAGACGATAAAGGGGTCAGAG, the remaining target (mRNA or protein) (fraction of control) in the series with TNF was at least 1.

As for TAGAGTCTGATGTAGCAGCG, the remaining target (mRNA or protein) (fraction of control) with MAP2K4 is 0.79.

Consider TAGCAGCGATATCAATCGAC, for which, in the series with MAP2K4, the remaining target (mRNA or protein) (fraction of control) was determined as 0.55.

TATCACATCAGTAATCTATT came in with a remaining target (mRNA or protein) (fraction of control) in the series with MAP2K4 of at least 1.

TATCTCCCTCGTCTCCCATCT returned a remaining target (mRNA or protein) (fraction of control) with TNF of 0.27.

For the sequence TATTTTAATGTTCACCTCTT, the remaining target (mRNA or protein) (fraction of control) in the series with MAP2K4 was at least 1.

In turn, TCATCTCCTGGGCTGTCT had a remaining target (mRNA or protein) (fraction of control) with BIRC3 of 0.6.

As for TCCACTCCCCCGATCCACTCA, the remaining target (mRNA or protein) (fraction of control) with TNF is 0.11.

TGAAGTGTCTTGAAGCTG came in with a remaining target (mRNA or protein) (fraction of control) with BIRC3 of at least 1.

Take TGATCCACTCCCCCCTCCACT: in the series with TNF, the remaining target (mRNA or protein) (fraction of control) is 0.06 and 0.1.

Turning to TGATGTAGCAGCGATATCAA, the remaining target (mRNA or protein) (fraction of control) with MAP2K4 was found to be 0.72.

In turn, TGGCTTGAACTTGACGGA registered a remaining target (mRNA or protein) (fraction of control) with BIRC3 of at least 1.

Sequence TGTAGTGCTACCTCTTTT returned a remaining target (mRNA or protein) (fraction of control) with BIRC3 of 0.31.

In the series with MAP2K4, TGTGTCCTTCCAGGATTTGG had a remaining target (mRNA or protein) (fraction of control) of 0.7.

In turn, TGTGTGACTCATGAAGCT came in with a remaining target (mRNA or protein) (fraction of control) with BIRC3 of 0.77.

On to TTAACGGAATTTAGACTC, for which the remaining target (mRNA or protein) (fraction of control) in the series with BIRC3 was at least 1.

Take TTAAGGAAGAAATACACA: the remaining target (mRNA or protein) (fraction of control) in the series with BIRC3 was at least 1.

The sequence TTCAGTGGCATTCAATCA gave a remaining target (mRNA or protein) (fraction of control) in the series with BIRC3 of 0.77.

TTCCCAACGCTGGGTCCTCCA showed a remaining target (mRNA or protein) (fraction of control) in the series with TNF of at least 1.

With TTCTTGCCCTCCCTCCCTACT, the remaining target (mRNA or protein) (fraction of control) with TNF was 0.12.

As for TTGCTGTTCTCCCTCCTGGCT, the remaining target (mRNA or protein) (fraction of control) with TNF is 0.15.

With TTTAAACACTAGCGATTATG, in the series with MAP2K4, the remaining target (mRNA or protein) (fraction of control) is at least 1.

TTTCTCTCTCCTCTTCCC: the remaining target (mRNA or protein) (fraction of control) with BIRC3 is 0.9.

In the series with BIRC3, TTTGACATCATCACTGTT registered a remaining target (mRNA or protein) (fraction of control) of at least 1.

Take TTTGTTTTAATAAAGATACA: in the series with MAP2K4, the remaining target (mRNA or protein) (fraction of control) came out at 0.88.
